Reference: ChEMBL document CHEMBL1201862, “PubChem BioAssay data set” (2004)
The source made the active and inactive calls.

Experiments:
[1] = inhibitors of intracellular T. cruzi replication, confirmation, NIH3T3 host cells, beta-gal luminescence (AID 2044); assay type: functional, cell-based;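 also: intracellular parasites grown in NIH/3T3 mouse fibroblasts as host cells; luminescent beta-galactosidase reporter signal from transgenic T. cruzi replicating inside host cells; inhibitors lower the luminescence signal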
[2] = cytotoxicity toward NIH3T3 fibroblasts, dose response, counter-screen, cell-based, ATP luminescence, mouse fibroblasts (AID 2010); assay type: functional;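 also: cells exposed to compound for about 90 hours before reading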
[3] = biological target: T1, Apoptotic protease-activating factor 1 (Homo sapiens, UniProt O14727); assay type: functional
T1 sequence (O14727 whole entry): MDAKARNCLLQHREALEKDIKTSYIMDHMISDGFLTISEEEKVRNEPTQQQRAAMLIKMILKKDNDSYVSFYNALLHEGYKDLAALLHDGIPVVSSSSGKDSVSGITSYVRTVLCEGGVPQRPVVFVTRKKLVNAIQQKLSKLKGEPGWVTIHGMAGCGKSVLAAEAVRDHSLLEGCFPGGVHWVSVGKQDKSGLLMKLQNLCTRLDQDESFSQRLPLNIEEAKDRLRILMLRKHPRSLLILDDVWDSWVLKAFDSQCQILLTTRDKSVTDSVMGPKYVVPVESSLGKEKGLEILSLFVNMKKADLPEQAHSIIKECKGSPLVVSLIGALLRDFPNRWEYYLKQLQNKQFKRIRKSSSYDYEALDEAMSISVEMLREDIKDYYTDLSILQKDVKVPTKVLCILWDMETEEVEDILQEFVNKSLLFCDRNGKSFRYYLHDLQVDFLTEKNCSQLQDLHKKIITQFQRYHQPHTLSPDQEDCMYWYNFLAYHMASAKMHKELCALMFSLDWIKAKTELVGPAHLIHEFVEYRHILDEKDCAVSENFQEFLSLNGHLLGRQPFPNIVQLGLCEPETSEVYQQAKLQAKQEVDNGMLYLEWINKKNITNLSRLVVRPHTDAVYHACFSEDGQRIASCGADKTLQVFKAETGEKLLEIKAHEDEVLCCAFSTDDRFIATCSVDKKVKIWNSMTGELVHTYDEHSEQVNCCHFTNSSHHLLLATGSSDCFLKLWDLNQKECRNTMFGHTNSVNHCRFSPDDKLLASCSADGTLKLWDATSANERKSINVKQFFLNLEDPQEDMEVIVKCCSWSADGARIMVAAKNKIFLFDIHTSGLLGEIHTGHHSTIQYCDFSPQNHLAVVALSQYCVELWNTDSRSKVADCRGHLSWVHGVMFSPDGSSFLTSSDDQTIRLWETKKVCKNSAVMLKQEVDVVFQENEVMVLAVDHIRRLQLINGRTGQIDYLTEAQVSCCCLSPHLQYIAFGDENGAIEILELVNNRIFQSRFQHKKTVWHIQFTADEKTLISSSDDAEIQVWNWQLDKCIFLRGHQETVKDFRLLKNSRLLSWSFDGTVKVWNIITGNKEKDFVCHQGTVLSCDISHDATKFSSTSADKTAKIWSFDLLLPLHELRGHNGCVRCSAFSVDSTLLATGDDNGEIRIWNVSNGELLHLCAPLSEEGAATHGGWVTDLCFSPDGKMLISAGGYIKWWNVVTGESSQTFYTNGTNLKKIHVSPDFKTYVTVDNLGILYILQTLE

[4] = biological target: T2, Sentrin-specific protease 6 (Homo sapiens, UniProt Q9GZR1); assay type: functional;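 also: Luminescence-based dose-response confirmatory assay of SENP6 inhibition, following up an ultra-high-throughput screen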
T2 sequence (Q9GZR1 whole entry): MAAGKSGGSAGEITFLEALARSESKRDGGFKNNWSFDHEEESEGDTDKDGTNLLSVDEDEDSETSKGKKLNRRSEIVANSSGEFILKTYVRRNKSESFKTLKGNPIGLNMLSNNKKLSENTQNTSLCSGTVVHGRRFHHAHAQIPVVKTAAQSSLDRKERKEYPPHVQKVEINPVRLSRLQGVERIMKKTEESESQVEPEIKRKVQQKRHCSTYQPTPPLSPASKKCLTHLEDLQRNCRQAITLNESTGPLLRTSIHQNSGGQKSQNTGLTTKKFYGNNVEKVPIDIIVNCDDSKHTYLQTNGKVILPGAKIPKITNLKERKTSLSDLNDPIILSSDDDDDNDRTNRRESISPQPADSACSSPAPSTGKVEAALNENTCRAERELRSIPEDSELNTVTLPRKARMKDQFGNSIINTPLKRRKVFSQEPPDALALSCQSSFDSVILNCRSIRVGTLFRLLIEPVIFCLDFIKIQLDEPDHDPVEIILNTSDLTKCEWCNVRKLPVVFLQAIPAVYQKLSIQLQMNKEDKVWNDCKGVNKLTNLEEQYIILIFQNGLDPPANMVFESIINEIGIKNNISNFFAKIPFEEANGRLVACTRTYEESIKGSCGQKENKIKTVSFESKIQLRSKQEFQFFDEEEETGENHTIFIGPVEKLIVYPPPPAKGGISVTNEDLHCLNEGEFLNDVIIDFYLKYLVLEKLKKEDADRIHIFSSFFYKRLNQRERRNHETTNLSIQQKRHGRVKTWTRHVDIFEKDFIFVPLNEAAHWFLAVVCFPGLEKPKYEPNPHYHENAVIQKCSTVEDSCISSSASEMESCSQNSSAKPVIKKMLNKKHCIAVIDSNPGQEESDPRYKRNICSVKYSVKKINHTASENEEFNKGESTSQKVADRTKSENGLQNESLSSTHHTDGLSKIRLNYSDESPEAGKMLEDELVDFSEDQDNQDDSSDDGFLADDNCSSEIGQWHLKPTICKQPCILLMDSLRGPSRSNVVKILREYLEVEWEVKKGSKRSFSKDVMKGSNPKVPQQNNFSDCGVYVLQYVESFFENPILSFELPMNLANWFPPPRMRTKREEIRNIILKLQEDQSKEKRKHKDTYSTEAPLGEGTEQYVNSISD

[5] = biological target: T3, Tyrosyl-DNA phosphodiesterase 2 (Homo sapiens, UniProt O95551); assay: human TDP2 enzyme inhibitors, dose response, biochemical, epi absorbance, IC50 (AID 743297)
T3 sequence (O95551 whole entry): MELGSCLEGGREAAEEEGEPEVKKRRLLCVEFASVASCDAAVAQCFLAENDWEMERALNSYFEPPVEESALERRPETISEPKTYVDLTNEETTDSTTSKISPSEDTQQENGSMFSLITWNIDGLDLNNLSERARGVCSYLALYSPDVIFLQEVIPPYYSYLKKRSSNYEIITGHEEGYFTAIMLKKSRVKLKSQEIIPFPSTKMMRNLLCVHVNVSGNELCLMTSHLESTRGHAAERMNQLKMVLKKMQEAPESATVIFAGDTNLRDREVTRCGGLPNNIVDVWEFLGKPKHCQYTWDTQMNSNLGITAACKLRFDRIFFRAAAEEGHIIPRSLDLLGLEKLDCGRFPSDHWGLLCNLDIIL

Structure (SMILES)	EC50 [1]	EC50 [2]	IC50 [3]	IC50 [4]	IC50 [5]
CCN1/C(=C/c2ccc3cc(C)ccc3[n+]2CC)Sc2cc(C)c(C)cc21	< 0.1 µM (active)	5.67 µM (active)	23.9 µM (active)		
COc1ccc(C(=O)Nc2nc3c(s2)Cc2cc(OC)ccc2-3)cc1			51.1 µM (active)	1.65 µM (active)	11.2 µM (inactive)
Cc1oc2c(c1C(=O)c1ccccc1)C(=O)C(=O)c1ccccc1-2				6.87 µM (active)	14.2 µM (inactive)
O=C1CCCC2=C1C1(O)C(=O)c3ccccc3C1(O)O2 (stereo not given)			13.1 µM (active)		8.01 µM (active)
O=C1C(Cl)=C(NCCN2CCCCC2)C(=O)c2ccccc21	0.509 µM (active)	0.798 µM (active)	5.4 µM (active)		
COc1cc(NCCCNC(C)C)c2nccc(C)c2c1					> 128 µM (inactive)
CC(/C=C1\SC(=S)N(NS(=O)(=O)c2ccccc2)C1=O)=C\c1ccccc1				2.64 µM (active)	
